# Assay results taken from ChEMBL document CHEMBL4673406, “Discovery and Preclinical Evaluation of BMS-986242, a Potent, Selective Inhibitor of Indoleamine-2,3-dioxygenase 1” (ACS Med Chem Lett, 2021).
# Key:
# in vitro [1] = settings: human, liver microsomes
# Description: Metabolic stability in human liver microsomes assessed as parent compound remaining at 0.5 uM measured after 10 mins
# [2] = biological target: Indoleamine 2,3-dioxygenase 1 (Mus musculus) (UniProt P28776); assay: In vivo inhibition of IDO1 in nu/nu mouse xenografted with human SK-OV-3 cells assessed as reduction in kynurenine level at 60 mg/kg, po qd by HPLC-MS/MS analysis relative to control; type: functional, organism-based
# Chain of Indoleamine 2,3-dioxygenase 1 (Mus musculus) (P28776 whole entry, looked up): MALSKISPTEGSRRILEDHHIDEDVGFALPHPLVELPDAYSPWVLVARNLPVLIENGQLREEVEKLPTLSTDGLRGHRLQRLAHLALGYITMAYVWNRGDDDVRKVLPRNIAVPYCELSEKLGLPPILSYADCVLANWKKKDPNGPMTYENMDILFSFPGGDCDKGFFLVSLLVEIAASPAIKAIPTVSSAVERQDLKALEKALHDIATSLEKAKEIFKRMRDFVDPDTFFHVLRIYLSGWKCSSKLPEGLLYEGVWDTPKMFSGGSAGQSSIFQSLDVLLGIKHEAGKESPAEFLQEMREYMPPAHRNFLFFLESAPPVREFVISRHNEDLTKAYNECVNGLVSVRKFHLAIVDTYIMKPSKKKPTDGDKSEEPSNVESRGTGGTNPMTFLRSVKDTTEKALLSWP
# in vitro [3] = settings: mouse, liver microsomes
# Description: Metabolic stability in mouse liver microsomes assessed as parent compound remaining at 0.5 uM measured after 10 mins
# in vivo = settings: nu/nu, mouse, tumor, po, 60 mg/kg
# Description: AUC (0 to 24 hrs) in nu/nu mouse xenografted with human SK-OV-3 cells measured in tumor at 60 mg/kg, po qd by uHPLC-MS/MS analysis
# [4] = biological target: T1, Indoleamine 2,3-dioxygenase 1 (Homo sapiens, UniProt P14902); assay: Inhibition of IDO1 in IFNgamma-stimulated human HeLa cells preincubated for 2 hrs followed by IFNgamma stimulation and measured after 18 hrs by
# T1 sequence (P14902 whole entry): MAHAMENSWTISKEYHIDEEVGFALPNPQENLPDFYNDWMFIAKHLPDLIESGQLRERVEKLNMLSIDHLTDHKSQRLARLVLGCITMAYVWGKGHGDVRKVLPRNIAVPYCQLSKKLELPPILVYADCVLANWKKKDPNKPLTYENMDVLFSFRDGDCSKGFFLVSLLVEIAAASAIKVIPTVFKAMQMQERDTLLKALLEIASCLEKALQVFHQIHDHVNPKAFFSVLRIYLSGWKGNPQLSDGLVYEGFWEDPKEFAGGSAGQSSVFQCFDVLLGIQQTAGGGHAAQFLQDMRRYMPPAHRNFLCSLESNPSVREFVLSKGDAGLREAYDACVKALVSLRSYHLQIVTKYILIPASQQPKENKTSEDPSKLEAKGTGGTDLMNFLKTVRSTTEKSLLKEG
# [5] = biological target: Indoleamine 2,3-dioxygenase 1 (Mus musculus, UniProt P28776); assay: Inhibition of IDO1 in IFNgamma-stimulated mouse M109 cells preincubated for 2 hrs followed by IFNgamma stimulation and measured after 18 hrs by; type: cell-based
# Chain of Indoleamine 2,3-dioxygenase 1 (Mus musculus, UniProt P28776) (P28776 whole entry): as the sequence (P28776 whole entry, looked up) above
# [6] = biological target: T1, Indoleamine 2,3-dioxygenase 1; assay: Inhibition of IDO1 in IFNgamma/LPS-stimulated human whole blood preincubated for 4 hrs followed by IFNgamma/LPS stimulation and incubated for 18 hrs by Rapid-fire mass spectrometry analysis; type: tissue-based
# [7] = Aqueous solubility of the compound at pH 6.5; type: physicochemical; settings: buffer
# [8] = Solubility of the compound at pH 6.5 to 7.4; type: physicochemical; settings: buffer
# [9] = AUC (0 to 24 hrs) in nu/nu mouse xenografted with human SK-OV-3 cells measured in tumor at 100 mg/kg, po bid by uHPLC-MS/MS analysis; type: ADME, organism-based; set-up: time < 24 hr, route oral, dose 100 mg/kg
"remaining at 10 min, 0.5 µM (in vitro [1]) [%]",inhibition [2] [%],"remaining at 10 min, 0.5 µM (in vitro [3]) [%]",AUC at 24 h (in vivo) [µM·h],IC50 [4] [µM],IC50 [5] [µM],IC50 [6] [µM],solubility [7] [µg/mL],solubility [8] [µg/mL],AUC at 24 h [9] [µM·h],Structure (SMILES)
84,61,31,34.9,,,,,,,C[C@@H](C(=O)Nc1ccc(Cl)cc1)[C@H]1CC[C@@H](c2ccnc3ccc(F)cc32)CC1
39,,9,,0.007,0.048,0.097,,,,C[C@@H](NC(=O)c1cccc(Cl)c1)[C@H]1CC[C@@H](c2ccnc3ccc(F)cc32)CC1
56,,32,,0.261,0.772,0.158,,,,C[C@@H](CNC(=O)c1ccc(Cl)cc1)[C@H]1CC[C@@H](c2ccnc3ccc(F)cc32)CC1
9,,10,,,0.056,0.579,,,,C[C@@H](NC(=O)C12CCC(Cl)(CC1)CC2)[C@H]1CC[C@@H](c2ccnc3ccc(F)cc32)CC1
29,,< 1,,> 1,> 1,0.484,,,,C[C@@H](NS(=O)(=O)c1ccc(Cl)cc1)[C@H]1CC[C@@H](c2ccnc3ccc(F)cc32)CC1
< 1,,< 1,,0.018,0.287,0.47,,,,C[C@@H](C(=O)NC1CCCCC1)[C@H]1CC[C@@H](c2ccnc3ccc(F)cc32)CC1
48,,12,,0.004,0.012,0.028,,,,C[C@@H](c1nc2ccc(Cl)cc2[nH]1)[C@H]1CC[C@@H](c2ccnc3ccc(F)cc32)CC1
34,,2,,0.745,> 1,> 1,,,,C[C@@H](NCc1ccc(Cl)cc1)[C@H]1CC[C@@H](c2ccnc3ccc(F)cc32)CC1
52,,14,,0.02,0.067,0.28,,,,C[C@@H](NC(=O)Nc1ccc(Cl)cc1)[C@H]1CC[C@@H](c2ccnc3ccc(F)cc32)CC1
2,,4,,0.007,0.02,0.035,< 1,,,COc1ccc(C(=O)N[C@H](C)[C@H]2CC[C@@H](c3ccnc4ccc(F)cc43)CC2)cc1N1CCOCC1
59,,70,,0.002,0.003,0.022,,< 1,,C[C@@H](NC(=O)c1ccc(-c2ccccc2)cc1)[C@H]1CC[C@@H](c2ccnc3ccc(F)cc32)CC1
8,,2,,0.125,0.651,0.779,,,,C[C@@H](NC(=O)Cc1ccc(Cl)cc1)[C@H]1CC[C@@H](c2ccnc3ccc(F)cc32)CC1
19,,5,,0.067,0.87,> 1,,,,C[C@H](NC(=O)[C@H](C)[C@H]1CC[C@@H](c2ccnc3ccc(F)cc32)CC1)c1ccc(Cl)cc1
21,,7,,0.012,0.215,0.135,,,,C[C@@H](NC(=O)c1ccccc1Cl)[C@H]1CC[C@@H](c2ccnc3ccc(F)cc32)CC1
,,,,,,,,,48,NS(=O)(=O)NCCNc1nonc1C(=NO)Nc1ccc(F)c(Br)c1 [EPACADOSTAT]
73,,51,,0.01,0.092,0.08,,,,COc1ncc(NC(=O)[C@H](C)[C@H]2CC[C@@H](c3ccnc4ccc(F)cc43)CC2)cn1
80,,80,,0.007,0.062,0.044,,,,C[C@@H](CNc1ccc(Cl)cc1)[C@H]1CC[C@@H](c2ccnc3ccc(F)cc32)CC1
6,,5,,0.012,0.086,0.294,,,,C[C@@H](NC(=O)C1CCCCC1)[C@H]1CC[C@@H](c2ccnc3ccc(F)cc32)CC1
